Data on 4 compounds can be found in ChEMBL document CHEMBL1201862, “PubChem BioAssay data set” (2004).

Some test systems named below: ACHN; DU-145; EKVX; HCC 2998; HCT-116; HOP-92; HT-29; KM12; MCF7; NCI-H226; NCI-H460; OVCAR-3; OVCAR-5; SF-295; SF-539; SK-MEL-5; SNB-75; TK-10; UACC-257.
Common to all, as to assay: growth of human tumour cells (NCI), 48 h

Structures are written as SMILES.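 Interpolation was linear, between the two tested concentrations surrounding the appropriate level; five concentrations were tested over 48 hours in 96-well plates. At the GI50, growth is halved.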 Calls of active or inactive are those of the source. Cut-off read from the data, not from the text of the source: active = GI50 up to about 1.1 µM and inactive = higher.

In the case of `COC(=O)CC1C2(C)C3=C(C)C(c4ccoc4)CC3OC2C2OC(=O)C3(C)C=CC(=O)C1(C)C23` (stereo unspecified), the GI50 was 1.2 µM (inactive) with ACHN; 0.76 µM (active) in the experiment with DU-145; 1.36 µM (inactive) with EKVX; 1.41 µM (inactive) with HCC 2998; 0.889 µM (active) in the experiment on HCT-116; 1.82 µM (inactive) with HOP-92. For the same compound, the GI50 with HT-29 was 0.839 µM (active); with KM12 it was 1.71 µM (inactive); with MCF7 it was 0.578 µM (active); in the experiment with NCI-H226 it was 2.13 µM (inactive); in the experiment on NCI-H460, 1.15 µM (inactive); with OVCAR-3 it was 1.35 µM (inactive). Besides, the GI50 is 2.3 µM (inactive) in the experiment on OVCAR-5; 3.22 µM (inactive) with SF-295; 0.869 µM (active) with SF-539; 1.6 µM (inactive) in the experiment with SK-MEL-5; 3.01 µM (inactive) in the experiment on SNB-75; 2.28 µM (inactive) in the experiment on TK-10. Besides, the GI50 in the experiment on UACC-257 was 1.95 µM (inactive).

Regarding `COc1ccc(C2OC2C(=O)C23CC4CC(CC(C4)C2)C3)cc1` (stereo unspecified), the GI50 in the experiment with ACHN is > 100 µM (inactive); in the experiment on DU-145 it was 90.8 µM (inactive); with EKVX it was > 100 µM (inactive); in the experiment with HCC 2998, 31 µM (inactive); in the experiment with HCT-116, 58.6 µM (inactive); with HOP-92, 19.1 µM (inactive). The GI50 in the experiment on HT-29 was 13.4 µM (inactive); in the experiment with KM12 it was 96.8 µM (inactive); in the experiment with MCF7, 47.9 µM (inactive); in the experiment with NCI-H226, > 100 µM (inactive); in the experiment on NCI-H460, 44.8 µM (inactive); in the experiment on OVCAR-3, > 100 µM (inactive). Further, the GI50 in the experiment with OVCAR-5 was > 100 µM (inactive); with SF-295, 33.7 µM (inactive); in the experiment with SF-539, > 100 µM (inactive); in the experiment with SK-MEL-5 it was 77.8 µM (inactive); in the experiment with SNB-75, > 10 µM (inactive); in the experiment with TK-10, > 100 µM (inactive). The GI50 in the experiment on UACC-257 was 54.6 µM (inactive).

Consider `CC(C)(C)[Si](C)(C)OCC1OC(n2ccc(=O)[nH]c2=O)C(O[Si](C)(C)C(C)(C)C)[C@@]12O[C@H]2C(N)=O` (stereo partly specified), for which the GI50 is 6.05 µM (inactive) in the experiment with ACHN; 4.03 µM (inactive) with DU-145; 16.2 µM (inactive) in the experiment on EKVX; 11.9 µM (inactive) with HCC 2998; 4.08 µM (inactive) with HCT-116; > 10 µM (inactive) in the experiment with HOP-92. Moreover, the GI50 in the experiment with HT-29 is 3.39 µM (inactive); with KM12 it was 7.67 µM (inactive); in the experiment on MCF7, 3.97 µM (inactive); with NCI-H226, 0.445 µM (active); with NCI-H460 it was 5.28 µM (inactive); with OVCAR-3 it was 11.5 µM (inactive). Also, the GI50 in the experiment with OVCAR-5 is 11.8 µM (inactive); with SF-295, 4.56 µM (inactive); with SF-539 it was 3.05 µM (inactive); in the experiment with SK-MEL-5, 4.06 µM (inactive); in the experiment on SNB-75 it was 10.1 µM (inactive); in the experiment with TK-10, 20.2 µM (inactive). Besides, in the experiment on UACC-257, the GI50 is 26.2 µM (inactive).

As for `COc1ccc2c(c1O)-c1c(OC)c(OC)cc3c1[C@H](C2)[N+](C)(C)CC3`, the GI50 was > 100 µM (inactive) in the experiment on ACHN; > 100 µM (inactive) with DU-145; > 100 µM (inactive) in the experiment on EKVX; > 100 µM (inactive) in the experiment on HCC 2998; > 100 µM (inactive) in the experiment on HCT-116; 13.2 µM (inactive) in the experiment with HOP-92. Also, the GI50 in the experiment with HT-29, in the experiment with KM12, in the experiment with MCF7, in the experiment on NCI-H226, with NCI-H460 and in the experiment on OVCAR-3 was > 100 µM (inactive) throughout. In addition, the GI50 with OVCAR-5, in the experiment on SF-295, in the experiment with SF-539, with SK-MEL-5, in the experiment with SNB-75 and with TK-10 was > 100 µM (inactive) each time. In the experiment on UACC-257, the GI50 is > 100 µM (inactive).
